Laboratory results taken from article PMC7180948, “New Insights into 4-Anilinoquinazolines as Inhibitors of Cardiac Troponin I–Interacting Kinase (TNNi3K)” (Molecules, 2020).

Legend:
Experiment in all cases: biochemical
Design in all cases: KINOMEscan competition binding panel (Eurofins DiscoverX), single concentration, % inhibition
Conditions in all cases: read-out: 7 at 1 µM % inhibition
ACVR1B = ACVR1B (Homo sapiens, UniProt P36896)
How it was run: (§1)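 Kinome-wide profiling (KINOMEscan, >400 human kinases) was run at 1 µM compound.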

ADCK4 = biological target: T1, ADCK4 (Homo sapiens, UniProt Q96D53)
T1 construct: gene COQ8B
How it was run: as §1

AKT1 = AKT1 (Homo sapiens, UniProt P31749)
AKT1, sequence (P31749 whole entry): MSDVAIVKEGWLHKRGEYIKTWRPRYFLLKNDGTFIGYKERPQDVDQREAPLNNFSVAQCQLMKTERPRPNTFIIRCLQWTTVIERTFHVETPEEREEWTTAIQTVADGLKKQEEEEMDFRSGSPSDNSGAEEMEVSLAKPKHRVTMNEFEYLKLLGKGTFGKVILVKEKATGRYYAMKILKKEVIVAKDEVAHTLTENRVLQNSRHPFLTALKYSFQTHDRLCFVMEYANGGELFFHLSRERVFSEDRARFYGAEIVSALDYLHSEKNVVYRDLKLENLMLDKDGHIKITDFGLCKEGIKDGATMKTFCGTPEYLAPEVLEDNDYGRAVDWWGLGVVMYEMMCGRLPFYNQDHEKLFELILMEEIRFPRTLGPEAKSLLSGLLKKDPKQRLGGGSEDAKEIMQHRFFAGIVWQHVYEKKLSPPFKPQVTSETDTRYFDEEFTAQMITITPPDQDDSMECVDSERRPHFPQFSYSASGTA
How it was run: as §1

CAMK1D = CAMK1D (Homo sapiens, UniProt Q8IU85)
How it was run: as §1

CSNK1G2 = CSNK1G2 (Homo sapiens, UniProt P78368)
How it was run: as §1

CSNK2A2 = CSNK2A2 (Homo sapiens, UniProt P19784)
CSNK2A2, sequence (P19784 whole entry): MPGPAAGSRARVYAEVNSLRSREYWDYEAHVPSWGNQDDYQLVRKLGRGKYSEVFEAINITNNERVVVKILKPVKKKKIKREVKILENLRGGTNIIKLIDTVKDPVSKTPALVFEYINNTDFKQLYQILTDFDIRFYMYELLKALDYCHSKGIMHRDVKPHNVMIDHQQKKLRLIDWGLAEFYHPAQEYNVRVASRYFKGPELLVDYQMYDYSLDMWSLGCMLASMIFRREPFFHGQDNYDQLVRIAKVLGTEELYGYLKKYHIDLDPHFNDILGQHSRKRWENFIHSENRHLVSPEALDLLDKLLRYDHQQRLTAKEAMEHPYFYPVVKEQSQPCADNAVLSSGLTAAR
How it was run: as §1

DDR1 = DDR1 (Homo sapiens, UniProt Q08345)
How it was run: as §1

DRAK2 = biological target: T2, DRAK2 (Homo sapiens, UniProt O94768)
T2 construct: gene STK17B
How it was run: as §1

ERK3 = biological target: T3, ERK3 (Homo sapiens, UniProt Q16659)
T3 construct: gene MAPK6
How it was run: as §1

FLT3(R834Q) = FLT3(R834Q) (Homo sapiens, UniProt P36888, R834Q)
How it was run: as §1

KIT(D816V) = KIT(D816V) (Homo sapiens, UniProt P10721, D816V)
How it was run: as §1

LOK = biological target: T4, LOK (Homo sapiens, UniProt O94804)
T4 construct: gene STK10
T4 sequence (O94804 whole entry): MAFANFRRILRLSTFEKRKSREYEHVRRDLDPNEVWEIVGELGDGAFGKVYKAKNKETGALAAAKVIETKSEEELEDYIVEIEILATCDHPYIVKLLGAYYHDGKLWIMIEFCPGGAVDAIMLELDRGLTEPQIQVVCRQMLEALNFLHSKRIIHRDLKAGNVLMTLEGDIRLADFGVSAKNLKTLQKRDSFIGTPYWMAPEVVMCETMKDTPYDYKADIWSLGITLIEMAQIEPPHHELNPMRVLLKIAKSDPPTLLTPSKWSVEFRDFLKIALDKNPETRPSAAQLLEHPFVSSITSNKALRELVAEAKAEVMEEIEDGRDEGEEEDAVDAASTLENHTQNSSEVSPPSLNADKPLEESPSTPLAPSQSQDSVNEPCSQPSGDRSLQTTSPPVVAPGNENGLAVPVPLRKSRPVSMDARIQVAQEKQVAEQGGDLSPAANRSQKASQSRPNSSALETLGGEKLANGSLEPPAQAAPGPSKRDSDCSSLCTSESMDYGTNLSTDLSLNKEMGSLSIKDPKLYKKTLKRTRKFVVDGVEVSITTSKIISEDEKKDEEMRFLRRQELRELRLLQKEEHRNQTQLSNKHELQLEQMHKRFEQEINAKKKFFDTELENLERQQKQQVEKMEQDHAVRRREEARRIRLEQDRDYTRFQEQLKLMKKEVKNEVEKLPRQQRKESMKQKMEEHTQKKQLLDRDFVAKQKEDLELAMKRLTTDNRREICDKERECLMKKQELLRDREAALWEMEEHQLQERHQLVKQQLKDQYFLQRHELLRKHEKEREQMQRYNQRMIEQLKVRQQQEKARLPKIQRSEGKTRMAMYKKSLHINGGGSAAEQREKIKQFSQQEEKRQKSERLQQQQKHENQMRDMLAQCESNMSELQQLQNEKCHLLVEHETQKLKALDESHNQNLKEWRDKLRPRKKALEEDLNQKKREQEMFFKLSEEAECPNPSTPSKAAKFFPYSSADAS
How it was run: as §1

MET = MET (Homo sapiens, UniProt P08581)
How it was run: as §1

MLK3 = biological target: T5, MLK3 (Homo sapiens, UniProt Q16584)
T5 construct: gene MAP3K11
How it was run: as §1

MST1R = MST1R (Homo sapiens, UniProt Q04912)
How it was run: as §1

MST2 = biological target: T6, MST2 (Homo sapiens, UniProt Q13188)
T6 construct: gene STK3
How it was run: as §1

NEK11 = NEK11 (Homo sapiens, UniProt Q8NG66)
NEK11, sequence (Q8NG66 whole entry): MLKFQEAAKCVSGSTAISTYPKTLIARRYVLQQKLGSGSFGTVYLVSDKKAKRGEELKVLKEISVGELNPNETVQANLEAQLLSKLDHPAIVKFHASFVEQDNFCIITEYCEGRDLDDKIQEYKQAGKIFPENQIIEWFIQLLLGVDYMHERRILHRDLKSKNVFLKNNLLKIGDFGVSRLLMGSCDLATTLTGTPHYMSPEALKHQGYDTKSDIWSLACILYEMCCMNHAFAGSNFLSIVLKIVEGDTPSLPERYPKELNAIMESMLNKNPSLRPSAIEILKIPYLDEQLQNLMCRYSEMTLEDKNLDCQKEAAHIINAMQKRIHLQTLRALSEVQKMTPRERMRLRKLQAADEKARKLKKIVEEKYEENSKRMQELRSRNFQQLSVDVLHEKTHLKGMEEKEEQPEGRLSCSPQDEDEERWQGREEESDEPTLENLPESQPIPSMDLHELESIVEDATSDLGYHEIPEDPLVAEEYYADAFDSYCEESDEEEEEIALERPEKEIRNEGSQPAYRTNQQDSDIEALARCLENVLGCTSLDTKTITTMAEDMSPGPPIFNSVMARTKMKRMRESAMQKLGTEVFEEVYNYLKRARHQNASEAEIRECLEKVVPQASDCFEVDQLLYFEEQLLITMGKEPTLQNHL
How it was run: as §1

NIK = biological target: T7, NIK (Homo sapiens, UniProt Q99558)
T7 construct: gene MAP3K14
T7 sequence (Q99558 whole entry): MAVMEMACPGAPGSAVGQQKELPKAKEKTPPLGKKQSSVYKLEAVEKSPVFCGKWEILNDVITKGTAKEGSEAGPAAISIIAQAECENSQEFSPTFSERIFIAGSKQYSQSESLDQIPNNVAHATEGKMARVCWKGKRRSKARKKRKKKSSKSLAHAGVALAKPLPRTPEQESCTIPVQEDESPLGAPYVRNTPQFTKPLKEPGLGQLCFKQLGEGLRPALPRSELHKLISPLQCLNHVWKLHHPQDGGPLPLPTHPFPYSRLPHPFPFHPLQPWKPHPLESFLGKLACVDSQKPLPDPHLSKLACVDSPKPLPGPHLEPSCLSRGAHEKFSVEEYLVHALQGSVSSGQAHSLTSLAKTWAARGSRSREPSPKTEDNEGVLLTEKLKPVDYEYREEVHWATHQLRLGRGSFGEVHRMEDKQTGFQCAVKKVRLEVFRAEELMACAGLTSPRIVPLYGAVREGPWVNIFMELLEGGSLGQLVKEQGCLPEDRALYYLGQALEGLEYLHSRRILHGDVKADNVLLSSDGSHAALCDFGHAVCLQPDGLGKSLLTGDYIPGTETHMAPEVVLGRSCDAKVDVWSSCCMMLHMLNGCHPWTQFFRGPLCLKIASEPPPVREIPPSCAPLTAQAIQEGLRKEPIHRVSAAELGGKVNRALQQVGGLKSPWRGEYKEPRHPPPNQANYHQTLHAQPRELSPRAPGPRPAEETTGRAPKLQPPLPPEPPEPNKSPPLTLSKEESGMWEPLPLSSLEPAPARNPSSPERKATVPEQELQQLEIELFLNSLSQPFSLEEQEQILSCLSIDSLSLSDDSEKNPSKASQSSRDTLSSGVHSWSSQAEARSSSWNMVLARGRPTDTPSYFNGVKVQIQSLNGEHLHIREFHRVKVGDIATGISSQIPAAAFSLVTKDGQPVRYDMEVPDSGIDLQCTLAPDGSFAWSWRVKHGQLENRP
How it was run: as §1

PIM3 = PIM3 (Homo sapiens, UniProt Q86V86)
How it was run: as §1

RET(V804L) = RET(V804L) (Homo sapiens, UniProt P07949, V804L)
How it was run: as §1

RIPK2 = RIPK2 (Homo sapiens, UniProt O43353)
RIPK2, sequence (O43353 whole entry): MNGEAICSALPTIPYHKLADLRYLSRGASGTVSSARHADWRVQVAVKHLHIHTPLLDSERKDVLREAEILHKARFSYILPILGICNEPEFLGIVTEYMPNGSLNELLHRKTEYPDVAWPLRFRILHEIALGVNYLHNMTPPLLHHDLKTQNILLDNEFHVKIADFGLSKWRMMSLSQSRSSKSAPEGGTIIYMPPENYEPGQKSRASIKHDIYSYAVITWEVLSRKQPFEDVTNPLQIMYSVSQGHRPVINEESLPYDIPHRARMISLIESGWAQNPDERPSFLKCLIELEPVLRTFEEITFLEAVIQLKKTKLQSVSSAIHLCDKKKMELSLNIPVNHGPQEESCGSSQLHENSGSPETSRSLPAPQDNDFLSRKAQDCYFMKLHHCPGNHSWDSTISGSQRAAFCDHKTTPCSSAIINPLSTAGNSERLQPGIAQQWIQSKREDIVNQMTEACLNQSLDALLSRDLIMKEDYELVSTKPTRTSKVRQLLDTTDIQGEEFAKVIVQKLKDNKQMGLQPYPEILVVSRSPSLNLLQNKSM
How it was run: as §1

S6K1 = biological target: T8, S6K1 (Homo sapiens, UniProt P23443)
T8 construct: gene RPS6KB1
T8 sequence (P23443 whole entry): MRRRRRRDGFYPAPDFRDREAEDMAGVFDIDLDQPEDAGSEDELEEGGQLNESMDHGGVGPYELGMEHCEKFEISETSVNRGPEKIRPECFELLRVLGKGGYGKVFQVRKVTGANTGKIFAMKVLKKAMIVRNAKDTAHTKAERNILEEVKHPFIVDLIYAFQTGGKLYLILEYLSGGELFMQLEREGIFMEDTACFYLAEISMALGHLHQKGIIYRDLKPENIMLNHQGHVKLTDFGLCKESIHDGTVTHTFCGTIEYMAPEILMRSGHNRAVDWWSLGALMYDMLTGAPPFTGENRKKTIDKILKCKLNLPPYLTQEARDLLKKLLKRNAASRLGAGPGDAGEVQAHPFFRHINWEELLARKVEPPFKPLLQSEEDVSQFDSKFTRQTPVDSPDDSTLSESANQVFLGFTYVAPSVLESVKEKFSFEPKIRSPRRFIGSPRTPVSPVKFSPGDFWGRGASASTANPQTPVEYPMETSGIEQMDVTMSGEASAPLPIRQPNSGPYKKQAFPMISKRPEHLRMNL
How it was run: as §1

TIE2 = biological target: T9, TIE2 (Homo sapiens, UniProt Q02763)
T9 construct: gene TEK
How it was run: as §1

p38-alpha = biological target: T10, p38-alpha (Homo sapiens, UniProt Q16539)
T10 construct: gene MAPK14
T10 sequence (Q16539 whole entry): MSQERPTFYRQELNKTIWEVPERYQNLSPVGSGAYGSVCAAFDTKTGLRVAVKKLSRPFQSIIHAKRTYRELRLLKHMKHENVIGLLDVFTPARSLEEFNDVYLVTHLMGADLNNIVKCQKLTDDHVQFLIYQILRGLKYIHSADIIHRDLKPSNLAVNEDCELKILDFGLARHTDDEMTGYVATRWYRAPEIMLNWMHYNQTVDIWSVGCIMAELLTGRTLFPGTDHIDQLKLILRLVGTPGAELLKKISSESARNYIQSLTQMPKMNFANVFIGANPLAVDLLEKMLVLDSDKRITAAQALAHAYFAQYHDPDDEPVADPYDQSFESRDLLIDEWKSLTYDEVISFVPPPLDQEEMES
How it was run: as §1

## CNS(=O)(=O)c1ccc(N(C)C)c(Nc2ncnc3cc(OC)c(OC)cc23)c1 [compound 7, 3-((6,7-dimethoxyquinazolin-4-yl)amino)-4-(dimethylamino)-N-methylbenzenesulfonamide]
ACVR1B
  inhibition at 1 µM: 0%
ADCK4
  inhibition at 1 µM: 0%
AKT1
  inhibition at 1 µM: 0%
CAMK1D
  inhibition at 1 µM: 0%
CSNK1G2
  inhibition at 1 µM: 0%
CSNK2A2
  inhibition at 1 µM: 13%
DDR1
  inhibition at 1 µM: 0%
DRAK2
  inhibition at 1 µM: 0%
ERK3
  inhibition at 1 µM: 0%
FLT3(R834Q)
  inhibition at 1 µM: 31%
KIT(D816V)
  inhibition at 1 µM: 91.7%
LOK
  inhibition at 1 µM: 44%
MET
  inhibition at 1 µM: 3%
MLK3
  inhibition at 1 µM: 0%
MST1R
  inhibition at 1 µM: 3%
MST2
  inhibition at 1 µM: 0%
NEK11
  inhibition at 1 µM: 0%
NIK
  inhibition at 1 µM: 0%
PIM3
  inhibition at 1 µM: 0%
RET(V804L)
  inhibition at 1 µM: 0%
RIPK2
  inhibition at 1 µM: 28%
S6K1
  inhibition at 1 µM: 23%
TIE2
  inhibition at 1 µM: 0%
p38-alpha
  inhibition at 1 µM: 0%
